Test [1] deals with T1, TLR 4 (Mus musculus, UniProt Q9JHF9+Q9QUK6).
T1 construct: LPS was added to RAW264.7 cells at 10 ng/mL in the absence or presence of 50 μg/mL of lipid; endogenous in cells; host or cells: RAW264.7 (ATCC)
T1 sequence (Q9QUK6 26-835): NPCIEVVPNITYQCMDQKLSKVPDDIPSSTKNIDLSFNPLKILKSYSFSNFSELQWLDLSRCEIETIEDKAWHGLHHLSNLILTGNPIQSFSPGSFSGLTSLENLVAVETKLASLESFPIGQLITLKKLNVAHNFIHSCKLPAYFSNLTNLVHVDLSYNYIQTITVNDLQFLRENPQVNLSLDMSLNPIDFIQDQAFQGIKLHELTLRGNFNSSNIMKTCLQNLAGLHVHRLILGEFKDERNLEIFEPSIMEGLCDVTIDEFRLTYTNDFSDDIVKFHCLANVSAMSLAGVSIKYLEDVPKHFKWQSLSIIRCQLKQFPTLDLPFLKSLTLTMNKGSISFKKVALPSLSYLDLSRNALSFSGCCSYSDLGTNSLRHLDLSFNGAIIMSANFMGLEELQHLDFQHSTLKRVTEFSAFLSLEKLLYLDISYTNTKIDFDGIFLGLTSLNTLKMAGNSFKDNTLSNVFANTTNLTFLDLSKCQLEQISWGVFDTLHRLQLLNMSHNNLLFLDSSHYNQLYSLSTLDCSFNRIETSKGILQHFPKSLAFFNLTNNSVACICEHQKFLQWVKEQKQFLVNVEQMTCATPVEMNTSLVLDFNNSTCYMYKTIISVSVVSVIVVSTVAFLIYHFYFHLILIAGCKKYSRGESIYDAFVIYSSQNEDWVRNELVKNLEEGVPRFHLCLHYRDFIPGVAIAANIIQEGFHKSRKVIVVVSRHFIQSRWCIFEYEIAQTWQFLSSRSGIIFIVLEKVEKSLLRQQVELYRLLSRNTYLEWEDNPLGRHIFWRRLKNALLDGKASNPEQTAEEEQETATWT
T1 sequence (Q9JHF9 19-160): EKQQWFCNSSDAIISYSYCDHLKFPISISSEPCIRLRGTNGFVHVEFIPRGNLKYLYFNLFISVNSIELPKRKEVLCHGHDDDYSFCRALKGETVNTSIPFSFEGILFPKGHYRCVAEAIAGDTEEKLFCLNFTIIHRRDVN
Put plainly: LPS-induced TNF-α secretion by RAW264.7 cells (TLR 4 antagonism). It is filed as cell-based. To be noted: reduction in cytokine secretion vs activating TLR ligand alone.

Test [2] has as its target T2, TLR 7 (Mus musculus, UniProt P58681).
T2 construct: endogenous in cells; host or cells: RAW264.7 (ATCC)
T2 sequence (P58681 27-1050): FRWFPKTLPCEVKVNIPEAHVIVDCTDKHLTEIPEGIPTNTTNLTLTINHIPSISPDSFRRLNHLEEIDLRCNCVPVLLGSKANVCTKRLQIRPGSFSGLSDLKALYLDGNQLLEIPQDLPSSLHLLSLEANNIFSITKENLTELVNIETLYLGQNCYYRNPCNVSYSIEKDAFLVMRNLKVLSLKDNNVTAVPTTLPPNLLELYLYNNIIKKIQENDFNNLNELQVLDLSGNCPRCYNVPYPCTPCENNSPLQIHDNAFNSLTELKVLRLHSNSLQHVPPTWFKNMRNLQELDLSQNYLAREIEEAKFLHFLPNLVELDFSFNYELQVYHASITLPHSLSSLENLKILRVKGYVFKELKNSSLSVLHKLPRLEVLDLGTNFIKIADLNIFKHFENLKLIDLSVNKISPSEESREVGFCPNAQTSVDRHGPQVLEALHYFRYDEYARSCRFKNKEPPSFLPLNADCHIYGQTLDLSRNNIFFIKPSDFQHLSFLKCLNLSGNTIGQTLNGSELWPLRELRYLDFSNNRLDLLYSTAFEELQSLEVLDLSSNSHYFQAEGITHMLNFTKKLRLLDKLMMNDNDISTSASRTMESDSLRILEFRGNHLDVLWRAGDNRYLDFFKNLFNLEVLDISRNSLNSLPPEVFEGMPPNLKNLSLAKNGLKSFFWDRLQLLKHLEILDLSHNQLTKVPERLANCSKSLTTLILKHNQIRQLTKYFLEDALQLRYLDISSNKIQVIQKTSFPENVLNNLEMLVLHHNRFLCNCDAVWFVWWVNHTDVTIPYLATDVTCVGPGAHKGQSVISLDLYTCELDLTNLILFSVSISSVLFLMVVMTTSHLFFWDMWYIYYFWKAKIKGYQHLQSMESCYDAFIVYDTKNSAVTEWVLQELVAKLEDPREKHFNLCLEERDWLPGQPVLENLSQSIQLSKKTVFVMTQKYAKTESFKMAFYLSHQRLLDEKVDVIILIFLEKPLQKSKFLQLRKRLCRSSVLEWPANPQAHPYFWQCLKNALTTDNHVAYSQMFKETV
In words: polyU-induced TNFα secretion by RAW264.7 cells (TLR 7 antagonism). It is filed as cell-based. The note with it: for antagonism of TLR 7 activation (TNFα release): 20 μg/mL polyU, 20 μg/mL phospholipid, 4 hours; for TLR7 antagonist activity: reduction in cytokine secretion vs activating TLR ligand alone. The procedure: The mouse macrophage cell line, RAW264.7, was obtained from ATCC and maintained in DMEM, supplemented with 10% bovine growth serum and 1× penicillin streptomycin. Cells were maintained at 37° C. with 5% carbon dioxide: 95% air atmosphere within the incubator. Experiments were completed in a 96-well plate where cells were seated at a density of 1×10^5 cells per well, 24 prior to stimulation with TLR agonists and antagonists. Lipids were dried under a stream of nitrogen, hydrated with phosphate-buffered saline (PBS) at 37° C. for one hour, followed by water bath sonication to create liposomes. Each condition for cell stimulation and antagonism was prepared in DMEM in a separate tube and consisted of: control, TLR agonist, TLR agonist+lipid, and lipid alone. 100 μL aliquots of medium+agonists+antagonists were added to each well and incubated at 37° C. for 4 hours. Subsequently, the media were collected, diluted and an enzyme-linked immunosorbent assay (ELISA) was performed to quantify TNFα release by cells.
TLR 7 is an intracellular receptor of the endosomal compartment. TLR 7 was the first innate immune receptor reported druggable with small molecules, however no breakthrough treatments have been discovered with TLR 7 agonists/antagonists yet (T. Y.-H. Wu, “Strategies for Designing Synthetic Immune Agonists,” Immunology, 2016). TLR 7 detects single-stranded RNA (ssRNA) within endosomal compartments. Xylitol lipids were assessed for antagonism of TLR 7 activation in the presence of the synthetic ssRNA analog, polyuridylic acid (polyU). The macrophage cell line, RAW264.7, was used to assess antagonist activity of PX analogs in a TLR 7-dependent manner. Cells were stimulated with 20 μg/mL polyU for 4 hours in the absence or presence of 20 μg/mL phospholipid. After a 4-hour stimulation media were collected and TNFα secretion was quantified by ELISA. […] Saturated, ester-linked phospholipids appear to be ineffective at antagonizing TLR 7 activation where as their unsaturated ester-linked and saturated ether-linked counterparts were effective.

“Also recorded” adds a separate entry of the source.

For the molecule `CCCCCCC=CCCCCCCCC(=O)OCC(COP(=O)(O)OCC(O)C(O)C(O)CO)OC(=O)CCCCCCCC=CCCCCCC` (mixture of isomers) [16:1 DPPX, sn-1-palmitoleoyl, sn-2-palmitoleoyl sn-3 glycerol phosphoxylitol], the TLR2 antagonist activity entry in test [1] is “+ (cutoff being greater than a 50% reduction in cytokine secretion compared to activating TLR ligand alone)”. Further, in test [2], the “antagonism of TLR 7 activation (TNFα release)” value (from here on “antagonism of TLR 7 activation”) is given as “markedly inhibited” and the TLR7 antagonist activity entry is listed as “+ (cutoff being greater than a 50% reduction in cytokine secretion compared to activating TLR ligand alone)”.

Consider `CCCCCCCCCCCCCCOC[C@H](COP(=O)(O)OCC(O)C(O)C(O)CO)OCCCCCCCCCCCCCC` (mixture of isomers) [14:0 DEPX, sn-1-O-myristyl, sn-2-O-myristyl sn-3 glycerol phosphoxylitol], for which the TLR2 antagonist activity result in test [1] was “+ (cutoff being greater than a 50% reduction in cytokine secretion compared to activating TLR ligand alone)”. For the same molecule, in test [2], the “antagonism of TLR 7 activation” value was “markedly inhibited” and the TLR7 antagonist activity entry is listed as “+ (cutoff being greater than a 50% reduction in cytokine secretion compared to activating TLR ligand alone)”.

Take `CCCCCC=CCC=CCCCCCCCC(=O)OCC(COP(=O)(O)OCC(O)C(O)C(O)CO)OC(=O)CCCCCCCC=CCC=CCCCCC` (mixture of isomers) [18:2 DLPX, sn-1-linoleoyl, sn-2-linoleoyl sn-3 glycerol phosphoxylitol]: the TLR2 antagonist activity result in test [1] is reported as “+ (cutoff being greater than a 50% reduction in cytokine secretion compared to activating TLR ligand alone)”. In test [2], the “antagonism of TLR 7 activation” value was “markedly inhibited” and the TLR7 antagonist activity result is recorded as “+ (cutoff being greater than a 50% reduction in cytokine secretion compared to activating TLR ligand alone)”.

`CCCCCCCCCCCCCC(=O)OC[C@H](COP(=O)(O)OCC(O)C(O)C(O)CO)OC(=O)CCCCCCCCCCCCC` (mixture of isomers) [DMPX, sn-1-myristoyl, sn-2-myristoyl sn-3 glycerol phosphoxylitol]: in test [1], the TLR2 antagonist activity entry was “+ (cutoff being greater than a 50% reduction in cytokine secretion compared to activating TLR ligand alone)”.

Consider `CCCCCCCC/C=C\CCCCCCCC(=O)O[C@H](COC(=O)CCCCCCCCCCCCCCC)COP(=O)([O-])OCC[N+](C)(C)C` [POPC, 1-palmitoyl-2-oleoyl-sn-glycero-3-phosphocholine, reference compound], for which the “antagonism of TLR 7 activation” value in test [2] is “not affected”.

Consider `CCCCCCCC/C=C\CCCCCCCC(=O)O[C@H](COC(=O)CCCCCCCCCCCCCCC)COP(=O)(O)OCC(O)C(O)C(O)CO` (some centres unmarked) [POPX, sn-1-palmitoyl, sn-2-oleoyly sn-3 glycerol phosphoxylitol], for which the TLR2 antagonist activity entry in test [1] is “+ (cutoff being greater than a 50% reduction in cytokine secretion compared to activating TLR ligand alone)”. Further, the TLR7 antagonist activity result in test [2] was “+ (cutoff being greater than a 50% reduction in cytokine secretion compared to activating TLR ligand alone)”.

On to `CCCCCCCCC=CCCCCCCCC(=O)OCC(COP(=O)(O)OCC(O)C(O)C(O)CO)OC(=O)CCCCCCCC=CCCCCCCCC` (mixture of isomers) [DOPX, sn-1-oleoyl, sn-2-oleoyl sn-3 glycerol phosphoxylitol], for which the TLR2 antagonist activity entry in test [1] was “+ (cutoff being greater than a 50% reduction in cytokine secretion compared to activating TLR ligand alone)”. For the same molecule, in test [2], the “antagonism of TLR 7 activation” value is listed as “markedly inhibited; also recorded: inhibit” and the TLR7 antagonist activity result is on record as “+ (cutoff being greater than a 50% reduction in cytokine secretion compared to activating TLR ligand alone)”.

For the molecule `CCCCCCCCC=CCCCCCCCCOCC(COP(=O)(O)OCC(O)C(O)C(O)CO)OCCCCCCCCC=CCCCCCCCC` (mixture of isomers) [18:1 DEPX, sn-1-O-octadecenyl, sn-2-O-octadecenyl sn-3 glycerol phosphoxylitol], in test [1], the TLR2 antagonist activity entry is on record as “+ (cutoff being greater than a 50% reduction in cytokine secretion compared to activating TLR ligand alone)”. Besides, in test [2], the “antagonism of TLR 7 activation” value is “markedly inhibited; also recorded: inhibit” and the TLR7 antagonist activity entry was “+ (cutoff being greater than a 50% reduction in cytokine secretion compared to activating TLR ligand alone)”.

As to `CCCCCCCC/C=C\CCCCCCCC(=O)O[C@H](COC(=O)CCCCCCCCCCCCCCC)COP(=O)(O)OCC(O)CO` (some centres unmarked) [POPG, palmitoyl-oleoyl-phosphatidylglycerol, reference compound], in test [2], the “antagonism of TLR 7 activation” value is listed as “markedly inhibited”.
